Experimental data published in patent US20230057568A1, “COMPOUNDS FOR TREATING FAMILIAL DYSAUTONOMIA” (PTC THERAPEUTICS, INC., priority 2019, published 2023).

Tested on: Elongator complex protein 1 (ELP1, also referred to as IKBKAP)
Test: IKBKAP-HTRF Assay
Assay type: cell-based, human
Settings: FD patient-derived fibroblasts GM04589, 48 hours incubation; for EC2x for IKBKAP protein expression (concentration producing two times the amount of IKBKAP protein vs DMSO vehicle control): 7-point concentration curve; for MFI (maximum fold increase in IKBKAP protein abundance relative to the vehicle control): HTRF
Procedure: The assay is used for the quantitative determination of Elongator complex protein 1 (ELP1, also referred to as IKBKAP) concentration in cell lysates using the HTRF® (Homogeneous Time-Resolved Fluorescence) technology. IKBKAP is detected in a sandwich HTRF assay by use of an anti-IKAP antibody labeled with a donor and an anti-IKAP antibody labeled with an acceptor.
Cells were thawed and incubated in DMEM-10% FBS for 72 hours. Cells were trypsinized, counted, and re-suspended to a concentration of 50,000 cells/mL in DMEM-10% FBS. A 199 μL, aliquot of the cell suspensions were plated at 10,000 cells per well in a 96 well microtiter plate and incubated for 3 to 5 hours. […] Test compounds were serially diluted 3.16-fold in 100% DMSO to generate a 7-point concentration curve. A 1 μL aliquot of 200× compound solution was transferred to cell-containing wells, and cells were incubated for 48 hours in a cell culture incubator (37° C., 5% CO2, 100% relative humidity). Triplicate samples were set up for each compound concentration. After 48 hours, the supernatant was removed from the cells and 50 μL of the 1× LB4 lysis buffer, containing protease inhibitors, was added to the cells and incubated with shaking at room temperature for 1 hour. A 36 μL aliquot of this lysate was subsequently transferred to the 384-well plate containing 4 μL of the antibody solution (1:50 dilution of anti IKAP d2 and anti-IKAP K(9+8) in detection buffer). The 384-well plate was then centrifuged for 1 minute to bring the solutions to the bottom of the plate and incubated overnight at 4° C. Fluorescence for each well of the plate at 665 nm and 620 nm was measured was on the EnVision plate reader (Perkin Elmer). The AF for each sample is calculated by: […]
wherein Signal is the normalized fluorescence for each sample well and Blank is the average normalized average fluorescence for the Blank control wells.
The maximum fold increase (MFI) in IKBKAP protein abundance for compounds of Formula (I) or a form thereof relative to the vehicle control are provided in Table 1. MFI was calculated by dividing the AF value for each sample well by the sample AF for the vehicle control wells.
The EC2× for IKBKAP protein expression obtained from the 7-point concentration curve generated for each test compound according to the protocol in Biological Example 1 are also provided in Table 1. The term “EC2× for IKBKAP protein expression” is defined as the concentration of test compound that is effective in producing two times the amount of IKBKAP protein in a FD patient cell compared to the amount produced from the DMSO vehicle control.

| Structure (SMILES) | EC2x for IKBKAP protein expression (concentration producing two times the amount of IKBKAP protein vs DMSO vehicle control) | MFI (maximum fold increase in IKBKAP protein abundance relative to the vehicle control) |
| --- | --- | --- |
| Cc1cnc(CNc2nc(Cl)nc3c(C)c(C[C@H](C)N)sc23)s1 [Cpd 31, 6-[(2S)-2-aminopropyl]-2-chloro-7-methyl-N-[(5-methyl-1,3-thiazol-2-yl)methyl]thieno[3,2-d]pyrimidin-4-amine] | *** (between >0.02 μM and ≤0.5 μM) | *** (between >2.9 and <3.9) |
| C[C@H](N)c1sc2c(NCc3ccco3)nc(Cl)nc2c1Br [Cpd 46, 6-[(1S)-1-aminoethyl]-7-bromo-2-chloro-N-[(furan-2-yl)methyl]thieno[3,2-d]pyrimidin-4-amine] | * (EC2×>1 μM) | * (MFI<1.9) |
| Cc1c(C[C@H](C)N)sc2c(NCc3ccccc3)nc(Cl)nc12 [Cpd 34, 6-[(2S)-2-aminopropyl]-N-benzyl-2-chloro-7-methylthieno[3,2-d]pyrimidin-4-amine] | ***** (<0.005 μM) | ***** (>4.9) |
| C[C@H](N)Cc1sc2c(NCc3cccs3)nc(Cl)nc2c1-c1ccccc1 [Cpd 87, 6-[(2S)-2-aminopropyl]-2-chloro-7-phenyl-N-[(thiophen-2-yl)methyl]thieno[3,2-d]pyrimidin-4-amine] | * (EC2×>1 μM) | * (MFI<1.9) |
| CC[C@H](N)Cc1sc2c(NCc3ccns3)nc(Cl)nc2c1C [Cpd 62, 6-[(2S)-2-aminobutyl]-2-chloro-7-methyl-N-[(1,2-thiazol-5-yl)methyl]thieno[3,2-d]pyrimidin-4-amine] | **** (between >0.005 μM and ≤0.02 μM) | ***** (>4.9) |
| Cc1c(C[C@@H](C)CO)sc2c(NCc3ccco3)nc(Cl)nc12 [Cpd 71, (2R)-3-(2-chloro-4-{[(furan-2-yl)methyl]amino}-7-methylthieno[3,2-d]pyrimidin-6-yl)-2-methylpropan-1-ol] | * (EC2×>1 μM) | * (MFI<1.9) |
| Cc1c([C@H](C)N)sc2c(NCc3ccco3)nc(Cl)nc12 [Cpd 47, 6-[(1S)-1-aminoethyl]-2-chloro-N-[(furan-2-yl)methyl]-7-methylthieno[3,2-d]pyrimidin-4-amine] | *** (between >0.02 μM and ≤0.5 μM) | *** (between >2.9 and <3.9) |
| C[C@H](N)c1sc2c(NCc3ccco3)nc(Cl)nc2c1-c1ccccc1 [Cpd 58, 6-[(1S)-1-aminoethyl]-2-chloro-N-[(furan-2-yl)methyl]-7-phenylthieno[3,2-d]pyrimidin-4-amine] | * (EC2×>1 μM) | * (MFI<1.9) |
| CCc1c(C[C@H](C)N)sc2c(NCc3ccco3)nc(Cl)nc12 [Cpd 77, 6-[(2S)-2-aminopropyl]-2-chloro-7-ethyl-N-[(furan-2-yl)methyl]thieno[3,2-d]pyrimidin-4-amine] | **** (between >0.005 μM and ≤0.02 μM) | ***** (>4.9) |
| Cc1c(C[C@@H](C)CN)sc2c(NCc3ccco3)nc(Cl)nc12 [Cpd 72, 6-[(2R)-3-amino-2-methylpropyl]-2-chloro-N-[(furan-2-yl)methyl]-7-methylthieno[3,2-d]pyrimidin-4-amine] | *** (between >0.02 μM and ≤0.5 μM) | *** (between >2.9 and <3.9) |
| Cc1c(C2CNC2)sc2c(NCc3ccco3)nc(Cl)nc12 [Cpd 41, 6-(azetidin-3-yl)-2-chloro-N-[(furan-2-yl)methyl]-7-methylthieno[3,2-d]pyrimidin-4-amine] | *** (between >0.02 μM and ≤0.5 μM) | ** (between >1.9 and <2.9) |
| C[C@H](N)c1sc2c(NCc3ccco3)nc(-c3ccccc3)nc2c1-c1ccccc1 [Cpd 61, 6-[(1S)-1-aminoethyl]-N-[(furan-2-yl)methyl]-2,7-diphenylthieno[3,2-d]pyrimidin-4-amine] | * (EC2×>1 μM) | * (MFI<1.9) |
| Cc1c(C[C@H](C)N)sc2c(NCc3ncncc3F)nc(Cl)nc12 [Cpd 98, 6-[(2S)-2-aminopropyl]-2-chloro-N-[(5-fluoropyrimidin-4-yl)methyl]-7-methylthieno[3,2-d]pyrimidin-4-amine] | **** (between >0.005 μM and ≤0.02 μM) | ***** (>4.9) |
| Cc1c(C[C@@H](N)CO)sc2c(NCc3ccco3)nc(Cl)nc12 [Cpd 19, (2R)-2-Amino-3-(2-chloro-4-{[(furan-2-yl)methyl]amino}-7-methylthieno[3,2-d]pyrimidin-6-yl)propan-1-ol] | ***** (<0.005 μM) | ***** (>4.9) |
| Cc1c(C2CCNC2)sc2c(NCc3ccco3)nc(Cl)nc12 (stereo not drawn) [Cpd 57, 2-chloro-N-[(furan-2-yl)methyl]-7-methyl-6-(pyrrolidin-3-yl)thieno[3,2-d]pyrimidin-4-amine] | *** (between >0.02 μM and ≤0.5 μM) | *** (between >2.9 and <3.9) |
| Cc1c(C[C@H](C)N)sc2c(NCc3ccco3)nc(C(F)(F)F)nc12 [Cpd 26, 6-[(2S)-2-aminopropyl]-N-[(furan-2-yl)methyl]-7-methyl-2-(trifluoromethyl)thieno[3,2-d]pyrimidin-4-amine] | *** (between >0.02 μM and ≤0.5 μM) | **** (between >3.9 and <4.9) |
| Cc1c(C[C@H](C)CO)sc2c(NCc3ccco3)nc(Cl)nc12 [Cpd 66, (2S)-3-(2-chloro-4-{[(furan-2-yl)methyl]amino}-7-methylthieno[3,2-d]pyrimidin-6-yl)-2-methylpropan-1-ol] | * (EC2×>1 μM) | * (MFI<1.9) |
| C[C@H](N)Cc1sc2c(NCc3ccco3)nc(Cl)nc2c1Br [Cpd 40, 6-[(2S)-2-aminopropyl]-7-bromo-2-chloro-N-[(furan-2-yl)methyl]thieno[3,2-d]pyrimidin-4-amine] | ***** (<0.005 μM) | ***** (>4.9) |
| CC[C@H](N)Cc1sc2c(NCc3nccs3)nc(Cl)nc2c1C [Cpd 54, 6-[(2S)-2-aminobutyl]-2-chloro-7-methyl-N-[(1,3-thiazol-2-yl)methyl]thieno[3,2-d]pyrimidin-4-amine] | ***** (<0.005 μM) | ***** (>4.9) |
| N#Cc1csc2c(NCc3cccs3)nc(Cl)nc12 [Cpd 84, 2-chloro-4-{[(thiophen-2-yl)methyl]amino}thieno[3,2-d]pyrimidine-7-carbonitrile] | *** (between >0.02 μM and ≤0.5 μM) | **** (between >3.9 and <4.9) |
| Cc1c(C[C@H](C)N)sc2c(NCc3ccncc3)nc(Cl)nc12 [Cpd 45, 6-[(2S)-2-aminopropyl]-2-chloro-7-methyl-N-[(pyridin-4-yl)methyl]thieno[3,2-d]pyrimidin-4-amine] | ***** (<0.005 μM) | ***** (>4.9) |
